Reference: US20100029654A1, “CARDIOVASCULAR COMPOSITIONS AND USE OF THE SAME FOR THE TREATMENT OF ALZHEIMER'S DISEASE” (MOUNT SINAI SCHOOL OF MEDICINE, priority 2006, published 2010)
Where a name gives a salt, the structure may show the parent alone. Read-outs that look alike come from different tables or passages of the source.

How the values were obtained:
Aβ1-40 = Aβ1-40 content in conditioned medium of primary cortico-hippocampal neuron cultures from Tg2576 mice (ELISA; primary and secondary dose-response screening); format: cell-based, mouse; settings: for activity at 100 µM: Mus musculus, Neuron, 24 h, read-out: Ab1-40 (% of ctl); for activity at 100 µM / Ab1-40 (% of ctl): drug 100 μM; for reduced Aβ1-40: <85% of ctl
Description: (§1) Potential Aβ-lowering activity was assessed for 150 commercially available cardiovascular drugs using primary cortico-hippocampal neuron cultures derived from embryonic Tg2576 (El 6). […] All cardiovascular reagents were obtained from MicroSource Discovery Systems Inc (Gaylordsville, Conn.). […] Individual cardiovascular agents were applied directly to the culture medium (final 1% DMSO in the culture media). In control studies, parallel Tg2576 primary neuron cultures were treated with vehicle (1% DMSO) alone. The influence of drug treatments in Aβ content in the conditioned medium in treated cultures was assessed by assessing steady state levels of Aβ1-40 and Aβ1-42 in the culture media 24 hours after treatment.
(§2) Embryonic brain tissue was mechanically triturated and centrifuged. Neurons were seeded onto poly-D-lysine-coated 96-well plates at 1.0×10^5 cells per well and cultured in the serum-free chemically-defined medium Neurobasal, supplemented with 2% B27, 0.5 mM L-glutamine and 1% penicillin-streptomycin (Gibco-BRL).
(§3) For primary screening, cultured neurons were treated with 100 μM of drug in duplicates for 16 hours; all drugs were obtained in stock from MicroSource Discovery Systems Inc (Gaylordsville, Conn.). Conditioned medium was collected for Aβ detection using commercially available ELISA kits (BioSource). […] Primary neurons prepared in 96-well plates were treated with 0.1 μM, 1 μM, 10 μM, 50 μM, and 100 μM of each drug in duplicate for ˜16 hours and conditioned medium was collected for Aβ detection.

Aβ1-42 = Aβ1-42 content in conditioned medium of primary cortico-hippocampal neuron cultures from Tg2576 mice (ELISA; primary and secondary dose-response screening); format: cell-based, mouse; settings: for activity at 100 µM: Mus musculus, Neuron, 24 h, read-out: Ab1-42 (% of ctl); for activity at 100 µM / Ab1-42 (% of ctl): drug 100 μM; for reducing Aβ1-42: <85% of ctl
Description: as §1, §2, §3

[1] = test system: primary cortico-hippocampal neuron cultures; assay: MTT in primary screening
[2] = test system: primary cortico-hippocampal neuron cultures; assay: lactate dehydrogenase (LDH) activity assay in parallel neuron cultures
Description: For in vitro treatments drugs available from “The Spectrum Collection” in stocks of 10 mM in DMSO were applied directly to cultures to the desired concentrations (final 1% DMSO); control primary neuron cultures from Tg2576 embryos were treated with vehicle resulting in a final 1% DMSO.
Cell viability was assessed using a commercial available LDH assay kit according to the manufacture's instruction (Promega).

[3] = Primary Screening, table sorted by Aβ1-40
[4] = primary screening, Tg2576 neuron cultures, table sorted by Aβ1-42
[5] = primary screening, table sorted by Aβ1-42

| SMILES | MTT (% of ctl) [1, 3] | MTT (% of ctl) [1, 5] | LDH (% of ctl) [2, 3] | LDH (% of ctl) [2, 5] | activity at 100 µM (Aβ1-40; [3]) [%] | activity at 100 µM (Aβ1-40; [4]) [%] | activity at 100 µM (Aβ1-42; [3]) [%] | activity at 100 µM (Aβ1-42; [4]) [%] | reducing Aβ1-42 (Aβ1-42; primary screening) | reduced Aβ1-40 (Aβ1-40; primary screening) | Ab1-40 (% of ctl) (Aβ1-40; [3]) | Ab1-40 (% of ctl) (Aβ1-40; [4]) | Ab1-42 (% of ctl) (Aβ1-42; [3]) | Ab1-42 (% of ctl) (Aβ1-42; [4]) |
| --- | --- | --- | --- | --- | --- | --- | --- | --- | --- | --- | --- | --- | --- | --- |
| CCCC(=O)Nc1ncnc2c1ncn2[C@@H]1O[C@@H]2COP(=O)(O)O[C@H]2[C@H]1OC(=O)CCC [Bucladesine] | 97.2 % of ctl | 97.2 % of ctl | 357.1 % of ctl | 357.1 % of ctl | 85.3 | 85.3 | 69.9 | 69.9 | useful in reducing Aβ1-42 | – | – | – | – | – |
| C[C@]12CCC(=O)C=C1C=C[C@@H]1[C@@H]2CC[C@@]2(C)[C@H]1CC[C@@]2(O)CCC(=O)O [Canrenoic Acid, Potassium Salt] | 102.1 % of ctl | 102.1 % of ctl | 106.9 % of ctl | 106.9 % of ctl | 101 | 101 | 106 | 106 | – | – | – | – | – | – |
| NS(=O)(=O)c1cc2c(cc1Cl)N=CNS2(=O)=O [Chlorothiazide] | 99.4 % of ctl | 99.4 % of ctl | 110.3 % of ctl | 110.3 % of ctl | 107 | 107 | 104 | 104 | – | – | – | – | – | – |
| NS(=O)(=O)c1cc(C2(O)NC(=O)c3ccccc32)ccc1Cl (centres unmarked) [Chlorthalidone] | 12.1 % of ctl | 12.1 % of ctl | 645.8 % of ctl | 645.8 % of ctl | 108 | 108 | 96.7 | 96.7 | – | – | – | – | – | – |
| O=c1cc(-c2ccccc2)oc2cc(O)cc(O)c12 [Chrysin] | 84.5 % of ctl | 84.5 % of ctl | 118.3 % of ctl | 118.3 % of ctl | 71.6 | 71.6 | 83.4 | 83.4 | – | – | – | – | – | – |
| CCOC(=O)C(C)(C)Oc1ccc(Cl)cc1 [Clofibrate] | 97.9 % of ctl | 97.9 % of ctl | 110.5 % of ctl | 110.5 % of ctl | 90.9 | 90.9 | 92.5 | 92.5 | – | – | – | – | – | – |
| C[C@@H]1CCC[C@H](C)N1NC(=O)c1ccc(Cl)c(S(N)(=O)=O)c1 [Clopamide] | 99.2 % of ctl | 99.2 % of ctl | 99.9 % of ctl | 99.9 % of ctl | 92 | 92 | 98.9 | 98.9 | – | – | – | – | – | – |
| NS(=O)(=O)c1cc2c(cc1Cl)NC(C1CC3C=CC1C3)NS2(=O)=O (centres unmarked) [Cyclothiazide] | 97.7 % of ctl | 97.7 % of ctl | 110.3 % of ctl | 110.3 % of ctl | 71.1 | 71.1 | 75 | 75 | useful in reducing Aβ1-42 | reduced Aβ1-40 | – | – | – | – |
| CC1=NS(=O)(=O)c2cc(Cl)ccc2N1 [Diazoxide] | 97.8 % of ctl | 97.8 % of ctl | 112.0 % of ctl | 112.0 % of ctl | 114 | 114 | 98.9 | 98.9 | – | – | – | – | – | – |
| O=c1oc2ccccc2c(O)c1Cc1c(O)c2ccccc2oc1=O [Dicumarol] | 97.0 % of ctl | 97.0 % of ctl | 93.3 % of ctl | 93.3 % of ctl | 51.3 | 51.3 | 54 | 54 | useful in reducing Aβ1-42 | reduced Aβ1-40 | – | – | – | – |
| COc1ccc([C@@H]2Sc3ccccc3N(CCN(C)C)C(=O)[C@@H]2OC(C)=O)cc1 [Diltiazem Hydrochloride] | 97.8 % of ctl | 97.8 % of ctl | 96.1 % of ctl | 96.1 % of ctl | 108 | 108 | 98.9 | 98.9 | – | – | – | – | – | – |
| CC(CCc1ccc(O)cc1)NCCc1ccc(O)c(O)c1 (centres unmarked) [Dobutamine Hydrochloride] | 99.5 % of ctl | 99.5 % of ctl | 103.1 % of ctl | 103.1 % of ctl | 90.1 | 90.1 | 103 | 103 | – | – | – | – | – | – |
| O=c1oc2c(O)c(O)cc3c(=O)oc4c(O)c(O)cc1c4c23 [Ellagic Acid] | 85.2 % of ctl | 85.2 % of ctl | 109.2 % of ctl | 109.2 % of ctl | 96.6 | 96.6 | 94 | 94 | – | – | – | – | – | – |
| CC(C)OC(=O)C(C)(C)Oc1ccc(C(=O)c2ccc(Cl)cc2)cc1 [Fenofibrate] | 97.5 % of ctl | 97.5 % of ctl | 140.0 % of ctl | 140.0 % of ctl | 13.9 | 13.9 | 77.7 | 77.7 | – | – | – | – | – | – |
| Fc1ccc(C(c2ccc(F)cc2)N2CCN(C/C=C/c3ccccc3)CC2)cc1 [Flunarizine Hydrochloride] | 59.4 % of ctl | 59.4 % of ctl | 120.4 % of ctl | 120.4 % of ctl | 42.1 | 42.1 | 53.3 | 53.3 | useful in reducing Aβ1-42 | reduced Aβ1-40 | – | – | – | – |

More lines, main results first:

| MTT (% of ctl) [1, 3] | MTT (% of ctl) [1, 5] | LDH (% of ctl) [2, 3] | LDH (% of ctl) [2, 5] | SMILES | activity at 100 µM (Aβ1-40; [3]) [%] | activity at 100 µM (Aβ1-40; [4]) [%] | activity at 100 µM (Aβ1-42; [3]) [%] | activity at 100 µM (Aβ1-42; [4]) [%] | reducing Aβ1-42 (Aβ1-42; primary screening) | reduced Aβ1-40 (Aβ1-40; primary screening) | Ab1-40 (% of ctl) (Aβ1-40; [3]) | Ab1-40 (% of ctl) (Aβ1-40; [4]) | Ab1-42 (% of ctl) (Aβ1-42; [3]) | Ab1-42 (% of ctl) (Aβ1-42; [4]) |
| --- | --- | --- | --- | --- | --- | --- | --- | --- | --- | --- | --- | --- | --- | --- |
| 95.3 % of ctl | 95.3 % of ctl | 118.1 % of ctl | 118.1 % of ctl | CCCCNc1cc(C(=O)O)cc(S(N)(=O)=O)c1Oc1ccccc1 [Bumetanide] | 2.3 | 2.3 | 74.7 | 74.7 | useful in reducing Aβ1-42 | reduced Aβ1-40 | – | – | – | – |
| 41.2 % of ctl | 41.2 % of ctl | 227.6 % of ctl | 227.6 % of ctl | CCOc1nc2cccc(C(=O)OC(C)OC(=O)OC3CCCCC3)c2n1Cc1ccc(-c2ccccc2-c2nn[nH]n2)cc1 (centres unmarked) [Candesartan Cilextil] | – | – | – | – | useful in reducing Aβ1-42 | reduced Aβ1-40 | 9.3 % of ctl | 9.3 % of ctl | 18.1 % of ctl | 18.1 % of ctl |
| 62.3 % of ctl | 62.3 % of ctl | 120.2 % of ctl | 120.2 % of ctl | C[C@H](CS)C(=O)N1CCC[C@H]1C(=O)O [Captopril] | 104 | 104 | 99.7 | 99.7 | – | – | – | – | – | – |
| 126.4 % of ctl | 126.4 % of ctl | 118.9 % of ctl | 118.9 % of ctl | CCOC(=O)[C@H](CCc1ccccc1)N[C@@H](C)C(=O)N1CCC[C@H]1C(=O)O [Enalapril Maleate] | 101 | 101 | 97.6 | 97.6 | – | – | – | – | – | – |
| 108.6 % of ctl | 108.6 % of ctl | 135.0 % of ctl | 135.0 % of ctl | CCC(C(N)=O)c1ccccc1 (centres unmarked) [Fenbutyramide] | 91.6 | 91.6 | 96.3 | 96.3 | – | – | – | – | – | – |
| 101.4 % of ctl | 101.4 % of ctl | 75.6 % of ctl | 75.6 % of ctl | CCC(=O)O[C@@H](O[P@](=O)(CCCCc1ccccc1)CC(=O)N1C[C@H](C2CCCCC2)C[C@H]1C(=O)O)C(C)C [Fosinopril Sodium] | 94.7 | 94.7 | 95 | 95 | – | – | – | – | – | – |
